Data on 39 molecules can be found in patent publication EP3970494A1 (priority 2020, dated 2022).

Assay in all cases: microbe, parasite or virus in culture
Holding throughout (type): cell-based

One experiment concerns Septoria tritici. The conditions noted are these: Zymoseptoria tritici, 168 h.
Another experiment has as its system Phytophthora infestans. Particulars: 168 h, read-out: Fungal growth at 31 ppm (%) PHYTIN.
Another experiment deals with Fusarium culmorum. The conditions noted are these: 168 h.

For `CNC(=O)/C(=N/OC)c1cccc(C)c1CO/N=C(\C)c1cccc(C(F)F)n1` [Example 10], the activity at 31 ppm turned out to be 2% in the experiment on Septoria tritici, 0% in the experiment on Phytophthora infestans and 9% in the experiment on Fusarium culmorum.
For `CO/N=C(/C(=O)OC)c1cccc(C)c1CO/N=C(\C)c1cnc(Cl)c(Cl)c1` [Example 87], the activity at 31 ppm in the experiment on Septoria tritici amounted to 1%; in the experiment with Phytophthora infestans, 0%; in the experiment with Fusarium culmorum it was 17%.
Regarding `CO/N=C(/C(=O)OC)c1cccc(C)c1CO/N=C(\C)c1cc(C(F)F)ccn1` [Example 34], the activity at 31 ppm in the experiment with Septoria tritici worked out at 0%; in the experiment on Phytophthora infestans, 1%; with Fusarium culmorum, 10%.
The molecule `CO/N=C(/C(=O)OC)c1cccc(C)c1CO/N=C(\C)c1cccc(OC)n1` [Example 6] registered an activity at 31 ppm in the experiment on Septoria tritici of 7%.
Consider `CNC(=O)/C(=N/OC)c1cccc(C)c1CO/N=C(/c1cc(C(F)(F)F)ccn1)C1CC1` [Example 70, (2E)-2-[2-[[(E)-[cyclopropyl-[4-(trifluoromethyl)-2-pyridyl]methylene]amino]oxymethyl]-3-methyl-phenyl]-2-methoxyimino-N-methyl-acetamide], for which the results for the activity at 31 ppm in the experiment on Septoria tritici, in the experiment on Phytophthora infestans and with Fusarium culmorum were 0%, 0% and 12%, respectively.
Regarding `CNC(=O)/C(=N/OC)c1cccc(C)c1CO/N=C(\C)c1cc(C(F)F)ccn1` [Example 37], the activity at 31 ppm in the experiment with Septoria tritici is 3%; with Phytophthora infestans, 0%; in the experiment with Fusarium culmorum, 12%.
As for `CO/N=C(/C(=O)OC)c1cccc(C)c1CO/N=C(\C)c1cc(C(F)(F)F)ccn1` [Example 4, Methyl (2E)-2-methoxyimino-2-[3-methyl-2-[[(E)-1-[4-(trifluoromethyl)-2-pyridyl]ethylideneamino]oxymethyl]phenyl]acetate], the activity at 31 ppm in the experiment on Septoria tritici turned out to be 11%; with Fusarium culmorum, 10%.
With `CO/N=C(/C(=O)OC)c1cccc(C)c1CO/N=C(/c1cc(C(F)(F)F)ccn1)C1CC1` [Example 72, Methyl (2E)-2-[2-[[(E)-[cyclopropyl-[4-(trifluoromethyl)-2-pyridyl]methylene]amino]-oxymethyl]-3-methyl-phenyl]-2-methoxyimino-acetate], the values for the activity at 31 ppm with Septoria tritici, in the experiment on Phytophthora infestans and in the experiment on Fusarium culmorum were 4%, 6% and 14%, respectively.
As for `CO/N=C(/C(=O)OC)c1cccc(C)c1CO/N=C(\C)c1cccnc1` [Example 131], the results for the activity at 31 ppm with Septoria tritici and in the experiment on Phytophthora infestans were 17% and 0%, respectively.
Regarding `CO/N=C(/C(=O)OC)c1cccc(C)c1CO/N=C(\C)c1cc(C#N)ccn1` [Example 54], the activity at 31 ppm in the experiment with Septoria tritici amounted to 4%; with Phytophthora infestans, 2%; in the experiment with Fusarium culmorum, 14%.
`CO/N=C(/C(=O)OC)c1cccc(C)c1CO/N=C(\C)c1cccc(C(F)F)n1` [Example 9]: the results for the activity at 31 ppm in the experiment on Septoria tritici and in the experiment with Phytophthora infestans were 4% and 5%, respectively.
`CNC(=O)/C(=N/OC)c1cccc(C)c1CO/N=C(\C)c1cc(C#N)ccn1` [Example 55]: the results for the activity at 31 ppm with Septoria tritici, in the experiment on Phytophthora infestans and in the experiment with Fusarium culmorum were 8%, 0% and 12%, respectively.
With `CO/N=C(\C)c1ccnc(/C(C)=N/OCc2c(C)cccc2/C(=N\OC)C(=O)OC)c1` [Example 29, Methyl (2E)-2-methoxyimino-2-[2-[[(E)-1-[4-[(E)-N-methoxy-C-methyl-carbonimidoyl]-2-pyridyl]ethylideneamino]oxymethyl]-3-methyl-phenyl]acetate], the activity at 31 ppm was 0% in the experiment on Septoria tritici, 1% in the experiment on Phytophthora infestans and 12% in the experiment on Fusarium culmorum.
`CO/N=C(/C(=O)OC)c1cccc(C)c1CO/N=C(\C)c1cc(C(F)(F)F)ncn1` [Example 113, Methyl (2E)-2-methoxyimino-2-[3-methyl-2-[[(E)-1-[6-(trifluoromethyl)pyrimidin-4-yl]ethylideneamino]oxymethyl]phenyl]acetate]: the activity at 31 ppm stood at 0% in the experiment with Septoria tritici, 0% in the experiment with Phytophthora infestans and 1% in the experiment with Fusarium culmorum.
Take `CO/N=C(/C(=O)OC)c1cccc(C)c1CO/N=C(\C)c1ccnc(SC)c1` [Example 94]: the figures for the activity at 31 ppm with Septoria tritici, with Phytophthora infestans and with Fusarium culmorum were 1%, 1% and 15%, respectively.
As to `CO/N=C(/C(=O)OC)c1cccc(C)c1CO/N=C(\C)c1cncc(C(F)(F)F)c1` [Example 84, methyl (2E)-2-methoxyimino-2-[3-methyl-2-[[(E)-1-[5-(trifluoromethyl)-3-pyridyl]ethylideneamino]oxymethyl]phenyl]acetate], the activity at 31 ppm in the experiment on Septoria tritici was determined as 1%; in the experiment with Phytophthora infestans, 0%; in the experiment on Fusarium culmorum, 12%.
As for `CO/N=C(/C(=O)OC)c1cccc(C)c1CO/N=C(\C)c1cc(C(F)(F)F)cc(C)n1` [Example 46], the activity at 31 ppm was 0% with Septoria tritici, 0% in the experiment on Phytophthora infestans and 1% in the experiment on Fusarium culmorum.
For `CO/N=C(/C(=O)OC)c1cccc(C)c1CO/N=C(\C)c1cnc(C(F)(F)F)cn1` [Example 96, Methyl (2E)-2-methoxyimino-2-[3-methyl-2-[[(E)-1-[5-(trifluoromethyl)pyrazin-2-yl]ethylideneamino]oxymethyl]phenyl]acetate], the activity at 31 ppm with Septoria tritici was 18%; in the experiment on Phytophthora infestans it was 0%; in the experiment on Fusarium culmorum, 13%.
Turning to `CNC(=O)/C(=N/OC)c1cccc(C)c1CO/N=C(\C)c1ncccc1C(F)F` [Example 33], the activity at 31 ppm came out at 4% in the experiment on Septoria tritici, 14% with Phytophthora infestans and 11% in the experiment with Fusarium culmorum.
Turning to `CO/N=C(/C(=O)OC)c1cccc(C)c1CO/N=C(\C)c1ccnc(C(F)(F)F)c1` [Example 47], the activity at 31 ppm with Septoria tritici is 0%; with Phytophthora infestans it was 0%; in the experiment on Fusarium culmorum, 8%.
Consider `CO/N=C(/C(=O)OC)c1cccc(C)c1CO/N=C(\C)c1cc(C)ccn1` [Example 25], for which the activity at 31 ppm with Septoria tritici and in the experiment on Phytophthora infestans was 0% each time.
As to `CNC(=O)/C(=N/OC)c1cccc(C)c1CO/N=C(\C)c1cnc(Cl)c(Cl)c1` [Example 88], the results for the activity at 31 ppm with Septoria tritici, in the experiment with Phytophthora infestans and in the experiment with Fusarium culmorum were 9%, 0% and 14%, respectively.
With `CNC(=O)/C(=N/OC)c1cccc(C)c1CO/N=C(\C)c1cc(/C(C)=N/OC)ccn1` [Example 30, (2E)-2-Methoxyimino-2-[2-[[(E)-1-[4-[(E)-N-methoxy-C-methyl-carbonimidoyl]-2-pyridyl]ethylideneamino]oxymethyl]-3-methyl-phenyl]-N-methyl-acetamide], the figures for the activity at 31 ppm in the experiment with Septoria tritici, with Phytophthora infestans and in the experiment with Fusarium culmorum were 2%, 0% and 10%, respectively.
On to `CO/N=C(/C(=O)OC)c1cccc(C)c1CO/N=C(\C)c1cccc(F)n1` [Example 106], for which the activity at 31 ppm in the experiment on Septoria tritici turned out to be 13%; with Phytophthora infestans it was 0%.
As for `CNC(=O)/C(=N/OC)c1cccc(C)c1CO/N=C(\C)c1cccc(C(F)(F)F)n1` [Example 2], the activity at 31 ppm in the experiment with Septoria tritici came out at 12%; with Phytophthora infestans, 18%; with Fusarium culmorum, 7%.
As for `CO/N=C(/C(=O)OC)c1cccc(C)c1CO/N=C(\C)c1cc(C#N)cc(Cl)n1` [Example 64], the results for the activity at 31 ppm in the experiment with Septoria tritici and in the experiment with Phytophthora infestans were 17% and 21%, respectively.
As for `CNC(=O)/C(=N/OC)c1cccc(C)c1CO/N=C(\C)c1ncnc(Cl)c1F` [Example 108], the activity at 31 ppm stood at 0% in the experiment with Septoria tritici, 0% in the experiment with Phytophthora infestans and 8% in the experiment with Fusarium culmorum.
`CNC(=O)/C(=N/OC)c1cccc(C)c1CO/N=C(\C)c1ncsc1C(F)(F)F` [Example 41]: the values for the activity at 31 ppm in the experiment with Septoria tritici, in the experiment with Phytophthora infestans and in the experiment with Fusarium culmorum were 2%, 0% and 9%, respectively.
Turning to `CO/N=C(/C(=O)OC)c1cccc(C)c1CO/N=C(\C)c1cccc(C)n1` [Example 65], the activity at 31 ppm in the experiment on Septoria tritici worked out at 0%; in the experiment on Phytophthora infestans it was 1%.
As to `CO/N=C(/C(=O)OC)c1cccc(C)c1CO/N=C(\C)c1cc(C(F)(F)F)nc(C)n1` [Example 57], the activity at 31 ppm in the experiment with Septoria tritici is 14%; with Phytophthora infestans it was 2%; with Fusarium culmorum it was 12%.
With `CO/N=C(/C(=O)OC)c1cccc(C)c1CO/N=C(\C)c1ncccc1F` [Example 74], the activity at 31 ppm in the experiment with Septoria tritici worked out at 21%; in the experiment on Phytophthora infestans it was 0%.
On to `CNC(=O)/C(=N/OC)c1cccc(C)c1CO/N=C(\C)c1cccc(SC)n1` [Example 93], for which the values for the activity at 31 ppm in the experiment with Septoria tritici, in the experiment on Phytophthora infestans and in the experiment on Fusarium culmorum were 13%, 0% and 17%, respectively.
For `CNC(=O)/C(=N/OC)c1cccc(C)c1CO/N=C(\C)c1cc(C(F)(F)F)cc(Cl)n1` [Example 43], the activity at 31 ppm came out at 13% in the experiment on Septoria tritici, 9% in the experiment on Phytophthora infestans and 14% with Fusarium culmorum.
For the molecule `CNC(=O)/C(=N/OC)c1cccc(C)c1CO/N=C(\C)c1ccc(Cl)nn1` [Example 92], the activity at 31 ppm in the experiment with Phytophthora infestans came out at 0%; with Fusarium culmorum, 17%.
In the experiment on Septoria tritici, `CO/N=C(\C)c1cccc(/C(C)=N/OCc2c(C)cccc2/C(=N\OC)C(=O)OC)n1` [Example 31] had an activity at 31 ppm of 13%.
`CO/N=C(/C(=O)OC)c1cccc(C)c1CO/N=C(\C)c1ncccc1C(F)(F)F` [Example 27, Methyl (2E)-2-methoxyimino-2-[3-methyl-2-[[(E)-1-[3-(trifluoromethyl)-2-pyridyl]-ethylideneamino]oxymethyl]phenyl]acetate] returned an activity at 31 ppm with Septoria tritici of 5%.
`CNC(=O)/C(=N/OC)c1cccc(C)c1CO/N=C(\C)c1cn(C)nc1C(F)F` [Example 50]: the activity at 31 ppm in the experiment with Phytophthora infestans amounted to 0%; with Fusarium culmorum, 18%.
In the experiment on Septoria tritici, `CO/N=C(/C(=O)OC)c1cccc(C)c1CO/N=C(\C)c1cc(-c2ccc(F)cc2)sn1` [Example 11, Methyl (2E)-2-[2-[[(E)-1-[5-(4-fluorophenyl)isothiazol-3-yl]ethylideneamino]oxymethyl]-3-methyl-phenyl]-2-methoxyimino-acetate] displayed an activity at 31 ppm of 10%.
Turning to `CO/N=C(/C(=O)OC)c1cccc(C)c1CO/N=C(\C)c1ncccc1C(F)F` [Example 24], the results for the activity at 31 ppm in the experiment with Septoria tritici and with Phytophthora infestans were 0% and 18%, respectively.
